The SangsterLogP compilation

Columns and labels:
[1] = method code SF-AS, from DOI: 10.1002/em.2850200210, PMID: 1505530
[2] = not given; remark: listed apart in the source
[3] = not given; remark: listed apart in the source
[4] = method code SF-RC, from DOI: 10.1016/j.nucmedbio.2009.03.005, PMID: 19647167; details: pH 7.4
[5] = method code SF, from DOI: 10.1016/s0021-9673(00)89463-7; details: pH 2.4
[6] = not given; remark: listed apart in the source
[7] = not given; remark: listed apart in the source
[8] = not given; remark: listed apart in the source
[9] = method code SF-HPLC, from DOI: 10.1016/s0223-5234(97)84356-5
[10] = method code SF-AS, from DOI: 10.1002/jps.2600751012, PMID: 3795027
[11] = not given; remark: listed apart in the source
[12] = not given; remark: listed apart in the source
[13] = method code SF-AS, from DOI: 10.1021/js960328j, PMID: 9050798; details: pH 6.6
[14] = method code SF-AS, from DOI: 10.1211/0022357011776199, PMID: 11428660; details: pH 7.4
[15] = method code SF-RC, from DOI: 10.1021/jm8013376, PMID: 19216563; details: pH 7.4
[16] = method code SF, from DOI: 10.1016/j.ejps.2007.04.003, PMID: 17540545; details: pH 3.0
[17] = not given; remark: listed apart in the source
[18] = method code SF-RC, from DOI: 10.1016/s0969-8051(00)00080-9, PMID: 10832080; details: pH 13.0
[19] = method code SF-HPLC, from DOI: 10.3109/03639045.2012.690417, PMID: 22670797
[20] = method code SF-AS, from DOI: 10.1021/jm00001a010, PMID: 7837239; details: pH 7.0
[21] = not given; remark: listed apart in the source
[22] = not given; remark: listed apart in the source
[23] = method code SF-GLC, from DOI: 10.1016/s0380-1330(82)71969-0
[24] = method code SF, from DOI: 10.1248/cpb.34.4787
[25] = method code …, from Pirumyan, G.; Martiryan, A.; Skurlator, Yu.; Petrosyan, D.; Akhnazaryan, A.; Arutyunyan, V. (1988). Transformations of pyrazolone compounds for fish farming in aqueous medium. Chemical Journal of …
[26] = not given; remark: listed apart in the source
[27] = not given; remark: listed apart in the source
[28] = method code SF-RC, from PMID: 7826467
[29] = not given; remark: listed apart in the source
[30] = method code SF, from He, J.; Lang, L.; Zhang, Q.; Dong, L.; Chen, F.; Xu, G. (2010). Study on physicochemical properties of helicid. China Pharmacy, (1)23-25.; details: pH 2.0
[31] = not given; remark: listed apart in the source
[32] = not given; remark: listed apart in the source
[33] = not given; remark: listed apart in the source
[34] = method code SF-AS, from DOI: 10.1211/0022357001773940, PMID: 10757413; details: pH 7.4
[35] = method code SF-AS, from DOI: 10.1081/jlc-100104900; details: pH 1.0
[36] = method code SF-TN, from DOI: 10.1002/jps.2600741210, PMID: 4087196; details: pH 7.4
[37] = from Maeno, S., Miura, I., Masuda, K., & Nagata, T. (1990). Mepanipyrim(KIF-3535), a new pyrimidine fungicide. In Brighton Crop Protection Conference, Pests and Diseases - 1990 (Vol. 2, pp. 415-422). …
[38] = method code SF-HPLC, from DOI: 10.1021/jm970790w, PMID: 9548821; details: pH 7.4
[39] = method code SF-RC, from DOI: 10.1007/bf00263256, PMID: 6394334
[40] = not given; remark: listed apart in the source
[41] = method code SF-RC, from DOI: 10.1002/syn.20147; details: pH 7.4
[42] = method code SF-GLC, from DOI: 10.1016/j.chemosphere.2013.04.065, PMID: 23732011
[43] = method code SF-GLC, from DOI: 10.1002/etc.5620080702
[44] = not given; remark: listed apart in the source
[45] = method code SF-RC, from DOI: 10.1016/j.apradiso.2005.06.012, PMID: 16131471; details: pH 7.5
[46] = method code SF-AS, from PMID: 582409; details: pH 7.4
[47] = method code SF-HPLC, from DOI: 10.1002/etc.5620170216
[48] = method code SF-AS, from DOI: 10.1584/jpestics.8.69
[49] = not given; remark: listed apart in the source
[50] = method code SF-RC, from PMID: 892676

O=C1c2ccccc2-c2cc([N+](=O)[O-])ccc21
logP [1]: 3.06

CCCCOC(=O)COc1cc(Cl)c(Cl)cc1Cl
logP: 4.81

CCOP(=O)(OCC)Oc1cc(C)nc(NC(C)C)n1
logP [2]: 2.07

O=[N+]([O-])c1ccc(Oc2ccc(C(F)(F)F)cc2[N+](=O)[O-])cc1
logP [3]: 3.7

CO/N=C1/C=C(C#Cc2cccc(F)n2)CCC1
logD [4]: 2.11

O=C(O)c1ccc2oc3ccccc3c(=O)c2c1
logD [5]: 3.12

Clc1ccc(C(c2ccc(Cl)cc2)C(Cl)Cl)cc1
logP [6]: 5.19

Cc1cc(Cc2cc(Cl)ccc2Cl)c(Cl)cc1Cl
logP [7]: 6.38

Cc1cc2cccc(C)c2cc1C
logP [8]: 4.73

CC(=O)Nc1nc2c(ncn2COCCOC(C)=O)c(=O)[nH]1
logP [9]: -0.83

O=C(OCc1ccccc1)c1cccnc1
logP [10]: 2.4

Fc1cccc(-n2nnnc2Oc2ccccc2)c1
logP [11]: 3.6

Nc1ccc(C=Cc2ccc(N)cc2S(=O)(=O)O)c(S(=O)(=O)O)c1
logP [12]: -1.7

CCCS(=O)c1ccc2[nH]c(NC(=O)OC)nc2c1 (stereo unspecified)
logD [13]: 1.27

Cc1ncc([N+](=O)[O-])n1CCOC(=O)CN1CCCCC1
logD [14]: 0.51

Oc1ccc2nc(-c3ccccc3)sc2c1
logD [15]: 2.48

CCn1cc(C(=O)O)c(=O)c2cc3c(cc21)OCO3
logD [16]: 1.01

Cn1ccc2cc(-c3nc4ccc(F)nc4o3)cnc21
logP [17]: 2.91

CN1C2CCC1C(c1ccc(Cl)nc1)C2 (stereo unspecified)
logD [18]: 2.42

CC(C)(C)c1ccc(/C=N/NC(N)=S)cc1
logP [19]: 3.9

C=CCn1cnc2c(=O)[nH]c(Nc3ccccc3)nc21
logD [20]: 1.75

O=C(O)c1cc(-c2ccc(F)cc2F)ccc1O
logP [21]: 3.95

CCC(C)c1ccccc1OC(=O)NC (stereo unspecified)
logP [22]: 2.8

Clc1ccc(C(c2ccc(Cl)cc2)C(Cl)(Cl)Cl)cc1
logP [23]: 5.1

O=C(O)c1ccc(-c2ccccc2)cc1
logP [24]: 3.75

CC1(C)CC(=O)NN1C=NNc1ccccc1
logP [25]: 0.26

CCNc1ccc(C(=O)OCCN(C)C)cc1
logP [26]: 2.62

CCCCCCn1c(=O)c2c(ncn2C)n(C)c1=O
logP [27]: 1.2

COc1ccc2c(C)cc(=O)n3c(C)cc1c23
logP [28]: 2.84

FCCCN1CCC[C@H]1COc1cccnc1
logP [29]: 2.2

O=Cc1ccc(O[C@@H]2O[C@H](CO)[C@@H](O)[C@@H](O)[C@H]2O)cc1
logD [30]: -1.08

O=C(Oc1ccccc1)c1ccccc1
logP [31]: 3.5

O=C(OCc1ccccc1)c1ccc(O)cc1
logP [32]: 3.56

O=c1[nH]c2c(c(=O)n1C1CCCCC1)CCC2
logP [33]: 1.9

CCc1c(O)c(=O)ccn1CCCn1ccnc1
logD [34]: -0.32

CC(C(=O)O)c1ccc(C(=O)c2ccccc2)s1 (stereo unspecified)
logD [35]: 2.86

CCCCOC(=O)[C@@H](N)Cc1ccc(O)cc1
logD [36]: 1.8

CC#Cc1cc(C)nc(Nc2ccccc2)n1
logP [37]: 3.42

CC1(C)O[C@@H]2[C@@H](CO[C@@]3(COS(N)(=O)=O)OC(C)(C)O[C@@H]23)O1
logD [38]: 0.53

CC(=NO)C(C)(C)NCCCNC(C)(C)C(C)=NO
logP [39]: 1.76

CCCCCCc1ccccc1
logP [40]: 5.24

Cc1cc(C#N)cc(C#Cc2csc(C)n2)c1
logD [41]: 3.4

C=CCOc1ccccc1OCC=C
logP [42]: 2.7

Clc1ccc(C2OC2c2ccccc2)cc1 (stereo unspecified)
logP [43]: 4.54

CC(C)c1cccc(C(C)C)c1O
logP [44]: 3.63

COc1ccc2[nH]c(I)c(CCNC(C)=O)c2c1
logD [45]: 2.52

COc1ccc(-c2nc3c(N)nc(N)nc3nc2N)cc1
logD [46]: 1.19

c1ccc2cc3ccccc3cc2c1
logP [47]: 4.68

ClC(Cl)C(c1ccccc1)c1ccccc1
logP [48]: 4.51

N#Cc1ccc(NS(=O)(=O)c2ccc(N)cc2)cc1
logP [49]: 1.43

O=C(Nc1ccc(Cl)cc1)Nc1ccc(Cl)c(C(F)(F)F)c1
logP [50]: 2.93
